Active and inactive are the calls of the source.
Columns and labels:
[1] = target: Latent membrane protein 1 (Human herpesvirus 4 (strain B95-8), UniProt P03230); assay: TES1-eGFP NF-kB reporter inhibition versus Tet-On dsRED, dose response, selectivity assay for LMP1 NF-kB inhibitor project, imaging, HEK293T, dual-color eGFP/dsRED, cherry-picks (AID 588398); type: functional, cell-based
[2] = target: T1, Sentrin-specific protease 8 (Homo sapiens, UniProt Q96LD8); assay: SENP8 protease inhibitors, SAR follow-up, biochemical, luminescence (AID 504501); type: functional
T1 sequence (Q96LD8 whole entry): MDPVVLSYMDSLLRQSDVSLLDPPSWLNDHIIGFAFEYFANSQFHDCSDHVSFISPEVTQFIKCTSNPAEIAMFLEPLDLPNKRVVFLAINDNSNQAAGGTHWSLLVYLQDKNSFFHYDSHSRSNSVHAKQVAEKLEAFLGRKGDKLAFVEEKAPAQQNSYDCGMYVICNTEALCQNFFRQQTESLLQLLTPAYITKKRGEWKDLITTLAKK

Caspase-3 [3] = target: T2, Caspase-3 (Homo sapiens, UniProt P42574); assay: SAR Analysis of small molecule inhibitors of Sentrin-specific proteases (SENPs) using a Caspase-3 Selectivity assay. [Related pubchem assays (depositor defined):AID2540, AID2599, AID434973, AID489001]; type: functional
T2 sequence (P42574 whole entry): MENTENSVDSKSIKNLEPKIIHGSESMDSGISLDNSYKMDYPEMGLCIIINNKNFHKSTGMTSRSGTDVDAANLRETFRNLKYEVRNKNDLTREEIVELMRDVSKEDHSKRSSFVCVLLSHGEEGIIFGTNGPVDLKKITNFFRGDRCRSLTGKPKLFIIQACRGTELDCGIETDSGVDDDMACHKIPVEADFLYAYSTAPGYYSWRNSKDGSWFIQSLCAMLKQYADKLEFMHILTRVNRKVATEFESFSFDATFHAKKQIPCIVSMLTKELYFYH

[4] = target: T3, Sentrin-specific protease 7 (Homo sapiens, UniProt Q9BQF6); assay: SENP7 protease inhibitors, SAR follow-up, biochemical, luminescence (AID 504497); type: functional
T3 sequence (Q9BQF6 whole entry): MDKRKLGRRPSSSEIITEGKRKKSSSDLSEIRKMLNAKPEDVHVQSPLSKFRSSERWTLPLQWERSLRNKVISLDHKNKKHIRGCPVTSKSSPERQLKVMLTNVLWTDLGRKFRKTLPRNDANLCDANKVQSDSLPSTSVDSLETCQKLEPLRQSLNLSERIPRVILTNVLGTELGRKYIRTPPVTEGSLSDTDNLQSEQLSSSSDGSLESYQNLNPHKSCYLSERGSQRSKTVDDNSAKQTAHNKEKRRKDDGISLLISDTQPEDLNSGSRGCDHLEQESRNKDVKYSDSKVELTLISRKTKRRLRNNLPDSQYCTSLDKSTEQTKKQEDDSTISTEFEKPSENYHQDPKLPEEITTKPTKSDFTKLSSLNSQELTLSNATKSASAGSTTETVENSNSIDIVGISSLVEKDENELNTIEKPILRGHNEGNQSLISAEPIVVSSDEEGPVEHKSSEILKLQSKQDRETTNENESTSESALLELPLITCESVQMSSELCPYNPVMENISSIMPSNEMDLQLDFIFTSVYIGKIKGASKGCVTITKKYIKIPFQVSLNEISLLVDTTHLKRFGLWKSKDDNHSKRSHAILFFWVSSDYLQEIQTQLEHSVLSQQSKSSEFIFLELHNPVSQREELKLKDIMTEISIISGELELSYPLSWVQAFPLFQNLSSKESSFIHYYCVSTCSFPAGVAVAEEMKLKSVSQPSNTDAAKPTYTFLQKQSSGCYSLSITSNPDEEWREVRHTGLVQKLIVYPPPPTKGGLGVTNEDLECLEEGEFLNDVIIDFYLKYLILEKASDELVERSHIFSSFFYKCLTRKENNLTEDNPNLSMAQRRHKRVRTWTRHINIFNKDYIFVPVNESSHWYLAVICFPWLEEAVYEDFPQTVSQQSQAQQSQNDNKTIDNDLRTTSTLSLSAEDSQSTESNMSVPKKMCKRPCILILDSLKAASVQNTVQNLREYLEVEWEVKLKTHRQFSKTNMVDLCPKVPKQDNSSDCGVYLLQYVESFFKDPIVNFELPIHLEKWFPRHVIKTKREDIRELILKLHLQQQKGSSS

Caspase-3 [5] = target: T2, Caspase-3; assay: caspase-3 inhibitors as off-family protease, SAR follow-up, selectivity assay for SENP protease inhibitor project, biochemical, luminescence, set 2 (AID 588599); type: functional
[6] = target: T4, Sentrin-specific protease 6 (Homo sapiens, UniProt Q9GZR1); assay: SENP6 protease inhibitors, SAR follow-up, biochemical, luminescence, set 2 (AID 588598); type: functional
T4 sequence (Q9GZR1 whole entry): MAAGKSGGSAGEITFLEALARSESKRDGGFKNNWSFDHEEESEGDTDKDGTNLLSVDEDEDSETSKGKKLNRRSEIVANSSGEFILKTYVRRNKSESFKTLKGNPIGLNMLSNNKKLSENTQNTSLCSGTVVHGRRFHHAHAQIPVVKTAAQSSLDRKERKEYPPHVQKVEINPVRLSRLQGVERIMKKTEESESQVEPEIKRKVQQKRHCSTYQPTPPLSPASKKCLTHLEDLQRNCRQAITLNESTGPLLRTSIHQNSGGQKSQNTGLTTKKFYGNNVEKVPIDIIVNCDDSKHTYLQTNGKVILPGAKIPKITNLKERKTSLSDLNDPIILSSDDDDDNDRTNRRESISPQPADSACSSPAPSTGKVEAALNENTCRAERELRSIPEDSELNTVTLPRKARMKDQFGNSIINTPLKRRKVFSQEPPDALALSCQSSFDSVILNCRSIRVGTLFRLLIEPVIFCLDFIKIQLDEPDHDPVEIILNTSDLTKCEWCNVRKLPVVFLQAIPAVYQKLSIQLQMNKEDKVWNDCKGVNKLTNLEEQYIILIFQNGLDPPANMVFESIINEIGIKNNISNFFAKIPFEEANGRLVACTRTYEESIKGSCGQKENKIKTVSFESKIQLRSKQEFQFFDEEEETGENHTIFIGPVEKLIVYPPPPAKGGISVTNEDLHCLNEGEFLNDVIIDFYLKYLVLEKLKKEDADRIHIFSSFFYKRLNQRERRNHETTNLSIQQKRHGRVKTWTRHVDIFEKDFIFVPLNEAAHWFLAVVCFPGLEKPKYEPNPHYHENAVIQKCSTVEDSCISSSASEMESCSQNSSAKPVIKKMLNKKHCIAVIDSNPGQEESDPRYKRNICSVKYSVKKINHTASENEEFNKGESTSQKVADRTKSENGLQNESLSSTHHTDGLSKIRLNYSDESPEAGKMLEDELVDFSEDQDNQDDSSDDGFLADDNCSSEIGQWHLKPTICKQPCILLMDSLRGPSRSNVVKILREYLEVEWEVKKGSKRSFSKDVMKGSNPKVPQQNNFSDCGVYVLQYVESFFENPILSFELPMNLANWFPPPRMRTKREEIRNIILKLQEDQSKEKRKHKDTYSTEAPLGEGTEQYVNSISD

[7] = target: T1, Sentrin-specific protease 8; assay: SENP8 protease inhibitors, SAR follow-up, biochemical, luminescence, set 2 (AID 588601); type: functional
[8] = target: T4, Sentrin-specific protease 6; assay: SAR Analysis of small molecule inhibitors of Sentrin-specific protease 6 (SENP6) using a Luminescent assay. [Related pubchem assays (depositor defined):AID2582, AID2599]; type: functional
[9] = HepG2 cell cytotoxicity, dose response, cytotoxicity control, plate reader, cherry-pick, antagonist series (AID 743416); type: functional, cell-based
[10] = LGR2 antagonists, dose response, cell-based, HEK293, CRE-luciferase reporter, cherry pick, set 2 (AID 743343); type: functional;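 further: transfected cells were stimulated with diluted bursicon conditioned medium after compound addition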
[11] = A549 cell cytotoxicity, dose response, cytotoxicity control, plate reader, cherry-pick, antagonist series (AID 743412); type: functional, cell-based
[12] = HEK293 cell cytotoxicity, dose response, cytotoxicity control, plate reader, cherry-picked samples (AID 743446); type: functional, cell-based
[13] = Shn3 3'UTR reporter inhibitors, dose response, cell-based, Clone20 osteoblasts, firefly luciferase, cherry-picked (AID 624132); type: functional;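 further: firefly luciferase luminescence from reporter carrying the Shn3 3'UTR in osteoblasts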
[14] = HEK293T cell cytotoxicity, dose response, cytotoxicity control for HIV Vif inhibitor project, cherry-picks (AID 652208); type: functional, cell-based
[15] = control 3'UTR Renilla luciferase suppression, dose response, counter-screen for Shn3 inhibitor project, cell-based, Clone20-Shn3RL, cherry-picked (AID 624133); type: functional
HEK293 = assay: inhibitors of LMP1-driven NF-kB reporter, dose response, cell-based, HEK293, luciferase, cherry-pick (AID 588343); type: functional; conditions: Homo sapiens
[16] = HepG2 cell cytotoxicity, dose response, cytotoxicity control for Shn3 inhibitor project, CellTiter-Glo, cherry-picked (AID 624134); type: functional, cell-based
Phospholipase D2 = Phospholipase D2 (Homo sapiens, UniProt O14939); assay: PLD2 inhibitor potency in cells, dose response (AID 602147); type: functional;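 further: cellular assay in HEK293 cells overexpressing GFP-tagged PLD2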
Phospholipase D1 = target: T5, Phospholipase D1 (Homo sapiens, UniProt Q13393); assay: PLD1 inhibitor potency in cells, dose response (AID 602151); type: functional;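 further: cellular PLD1 assay in Calu-1 cells stimulated with PMA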
T5 sequence (Q13393 whole entry): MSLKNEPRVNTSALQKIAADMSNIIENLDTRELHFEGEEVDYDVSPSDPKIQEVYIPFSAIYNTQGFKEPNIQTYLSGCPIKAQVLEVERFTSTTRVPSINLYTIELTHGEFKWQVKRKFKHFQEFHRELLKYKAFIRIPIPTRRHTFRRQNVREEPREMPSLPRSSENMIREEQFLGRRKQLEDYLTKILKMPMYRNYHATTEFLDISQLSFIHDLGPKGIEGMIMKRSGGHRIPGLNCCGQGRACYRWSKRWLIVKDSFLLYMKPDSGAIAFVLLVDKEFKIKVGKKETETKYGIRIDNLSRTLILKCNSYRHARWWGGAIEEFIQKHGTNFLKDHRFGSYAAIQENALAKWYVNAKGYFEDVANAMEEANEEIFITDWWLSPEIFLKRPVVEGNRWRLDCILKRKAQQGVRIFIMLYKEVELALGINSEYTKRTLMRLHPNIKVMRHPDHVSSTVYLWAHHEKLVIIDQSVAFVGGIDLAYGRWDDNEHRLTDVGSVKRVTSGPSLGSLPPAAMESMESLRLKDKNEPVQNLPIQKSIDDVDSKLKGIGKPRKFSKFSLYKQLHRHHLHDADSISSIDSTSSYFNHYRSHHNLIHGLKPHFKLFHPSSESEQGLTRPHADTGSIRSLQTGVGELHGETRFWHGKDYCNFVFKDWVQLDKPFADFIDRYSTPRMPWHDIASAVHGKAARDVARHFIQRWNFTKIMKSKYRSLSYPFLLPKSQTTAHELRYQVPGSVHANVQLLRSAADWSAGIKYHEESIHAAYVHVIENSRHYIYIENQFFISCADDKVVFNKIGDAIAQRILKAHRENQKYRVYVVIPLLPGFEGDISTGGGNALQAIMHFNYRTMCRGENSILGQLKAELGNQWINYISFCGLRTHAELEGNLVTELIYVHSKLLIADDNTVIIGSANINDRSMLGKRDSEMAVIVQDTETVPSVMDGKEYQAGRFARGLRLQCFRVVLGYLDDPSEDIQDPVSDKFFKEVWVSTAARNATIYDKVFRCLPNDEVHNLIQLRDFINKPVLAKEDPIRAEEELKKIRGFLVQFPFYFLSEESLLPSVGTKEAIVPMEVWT

Chain of Latent membrane protein 1 (P03230 whole entry): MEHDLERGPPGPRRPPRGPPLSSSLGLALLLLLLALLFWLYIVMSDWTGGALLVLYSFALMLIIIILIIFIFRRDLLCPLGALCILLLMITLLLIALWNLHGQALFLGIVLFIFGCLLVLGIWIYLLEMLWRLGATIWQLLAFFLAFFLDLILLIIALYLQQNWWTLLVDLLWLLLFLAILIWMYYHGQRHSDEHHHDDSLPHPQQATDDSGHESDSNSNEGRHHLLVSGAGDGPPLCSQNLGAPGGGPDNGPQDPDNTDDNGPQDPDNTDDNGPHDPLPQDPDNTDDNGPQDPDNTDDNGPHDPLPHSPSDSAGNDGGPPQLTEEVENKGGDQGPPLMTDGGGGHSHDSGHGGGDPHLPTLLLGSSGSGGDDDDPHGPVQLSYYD
Chain of Phospholipase D2 (O14939 whole entry): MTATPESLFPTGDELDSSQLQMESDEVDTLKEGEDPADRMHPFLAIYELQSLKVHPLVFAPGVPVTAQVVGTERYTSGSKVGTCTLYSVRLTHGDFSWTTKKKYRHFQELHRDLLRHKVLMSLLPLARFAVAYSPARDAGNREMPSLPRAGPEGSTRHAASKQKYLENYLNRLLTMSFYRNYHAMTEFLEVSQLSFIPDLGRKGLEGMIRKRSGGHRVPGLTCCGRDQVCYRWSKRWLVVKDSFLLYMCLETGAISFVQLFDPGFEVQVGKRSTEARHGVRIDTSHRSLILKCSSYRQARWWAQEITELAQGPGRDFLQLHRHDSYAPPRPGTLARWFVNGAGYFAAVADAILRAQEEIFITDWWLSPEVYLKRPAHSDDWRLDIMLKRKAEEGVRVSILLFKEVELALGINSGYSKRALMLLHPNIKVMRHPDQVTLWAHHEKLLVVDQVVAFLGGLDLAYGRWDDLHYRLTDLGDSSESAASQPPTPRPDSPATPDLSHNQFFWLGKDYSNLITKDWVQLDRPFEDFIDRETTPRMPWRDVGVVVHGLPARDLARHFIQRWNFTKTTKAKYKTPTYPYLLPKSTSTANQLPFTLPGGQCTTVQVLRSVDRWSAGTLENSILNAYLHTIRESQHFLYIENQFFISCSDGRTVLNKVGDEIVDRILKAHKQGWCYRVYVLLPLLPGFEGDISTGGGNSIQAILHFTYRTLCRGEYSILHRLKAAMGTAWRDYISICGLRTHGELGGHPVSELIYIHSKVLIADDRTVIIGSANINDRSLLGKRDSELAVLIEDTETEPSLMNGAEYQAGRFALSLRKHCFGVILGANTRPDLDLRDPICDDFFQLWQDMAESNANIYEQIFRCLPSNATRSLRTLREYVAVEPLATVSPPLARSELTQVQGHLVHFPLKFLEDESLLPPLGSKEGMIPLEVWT

COc1ccc(C)cc1S(=O)(=O)N(CC(=O)Nc1cc([N+](=O)[O-])ccc1C)c1ccc(C)c(C)c1
active: AC50 [1] 29.5 µM

CN(C)c1ccc(/C=C/c2noc(-c3ccccc3O)n2)cc1
active: IC50 [2] 2.1 µM | IC50 (Caspase-3 [3]) 1.3 µM | IC50 [4] 1.7 µM | IC50 (Caspase-3 [5]) 1.16 µM | IC50 [6] 1.45 µM | IC50 [7] 1.42 µM | IC50 [8] 1.9 µM

CC(C)OC(=O)c1ccc(NCc2cc(O)ccc2O)cc1Cl
active: AC50 [9] 23.6 µM | AC50 [10] 49.2 µM | AC50 [11] 17 µM | AC50 [1] 9.48 µM | AC50 [12] 4.76 µM | AC50 [13] 2.15 µM | AC50 [14] 6.42 µM | AC50 [15] 4.45 µM | AC50 (HEK293) 10.9 µM | AC50 [16] 33.5 µM

C[C@@H](CN1CCC(n2c(=O)[nH]c3ccccc32)CC1)NC(=O)c1ccc(Cl)c(Cl)c1
active: IC50 (Phospholipase D2) 0.428 µM | IC50 (Phospholipase D1) 0.023 µM

O=C(NCCN1CCC2(CC1)C(=O)NCN2c1ccccc1)c1cccc(F)n1
active: IC50 (Phospholipase D2) 4.46 µM | IC50 (Phospholipase D1) 12 µM

— ChEMBL document CHEMBL1201862, “PubChem BioAssay data set” (2004)
